Values after ≈ are worked out from the molar mass of the structure shown.
Key:
[1] = tested on: Aspergillus fumigatus (MF 4839); assay: broth microdilution MIC assay; conditions: read-out: Minimum Inhibitory Concentration (MIC)
Description: (§1) In the microbroth dilution assay, microorganisms were selected by streaking a yeast culture on Sabouraud dextrose agar (SDA) incubating for 24-48 hours at 35°-37° C., thereafter selected 3 to 5 characteristic colonies and transferring to a fresh plate and incubating under similar conditions. From the regrowth, 3 to 5 colonies were selected and suspended in 10 milliliters of YM broth (Difco) and incubated for 4 hours at 35°-37° C. shaking at 225 rpm. The 4 hour broth cultures were adjusted optically to 86% transmission resulting in a concentration of 1-5 X 10^6 cfu/ml which was further diluted 1:100 in YNBD (yeast nitrogen base with 1% dextrose) to obtain a concentration of 1-5 X 10^4 cfu/ml for use as inocula.
(§2) The compounds in column 1 were then serially diluted two-fold to yield concentrations from 128 μg/ml to 0.6 μg/ml.
(§3) The plates containing the diluted compounds were then inoculated with 75 μl/well of the appropriate microorganism and incubated for 48 hours at 35°-37° C. with MIC (minimum inhibitory concentration) determinations carried out after 24 hours of incubation. Growth and sterility controls for each organism and sterility checks for the compounds also were carried out.

[2] = tested on: C. tropicalis (MY 1012); assay: broth microdilution MIC/MFC assay; conditions: Candida tropicalis; for MIC: 24 h, read-out: Minimum Inhibitory Concentration (MIC); for MFC: read-out: Minimum Fungicidal Concentration (MFC)
Description: as §1, §2, §3
(§4) After recording MICs at 24 hours, the microtiter plates were shaken gently to resuspend the cells. A 1.5 μl sample was transferred from each well of the 96-well microtiter plate to a single reservoir inoculum plate containing SDA. The inoculated SDA and corresponding microtiter plates were incubated for 24 hours at 35°-37° C. For Cryptococus neoformans, SDA plates were inoculated at 48 hours after recording MICs and incubated 48 hours before reading the MFC. MFC is the lowest concentration of compound at which either no growth or growth of ≤4 colonies occur.

[3] = tested on: C. neoformans (MY 2062); assay: broth microdilution MIC/MFC assay; conditions: Cryptococcus neoformans; for MFC: 48 h, read-out: Minimum Fungicidal Concentration (MFC); for MIC: read-out: Minimum Inhibitory Concentration (MIC)
Description: as §1, §2, §3, §4

[4] = tested on: C. parapsilosis (MY 1010); assay: broth microdilution MIC/MFC assay; conditions: Lodderomyces parapsilosis; for MIC: 24 h, read-out: Minimum Inhibitory Concentration (MIC); for MFC: read-out: Minimum Fungicidal Concentration (MFC)
Description: as §1, §2, §3, §4

[5] = tested on: C. pseudotropicalis (MY 2099); assay: broth microdilution MIC/MFC assay; conditions: Kluyveromyces marxianus; for MIC: 24 h, read-out: Minimum Inhibitory Concentration (MIC); for MFC: read-out: Minimum Fungicidal Concentration (MFC)
Description: as §1, §2, §3, §4

[6] = tested on: A. fumigatus (5668); assay: broth microdilution MIC assay; conditions: Aspergillus fumigatus, read-out: Minimum Inhibitory Concentration (MIC)
Description: as §1, §2, §3

[7] = tested on: C. neoformans (MY 2061); assay: broth microdilution MIC/MFC assay; conditions: Cryptococcus neoformans; for MFC: 48 h, read-out: Minimum Fungicidal Concentration (MFC); for MIC: read-out: Minimum Inhibitory Concentration (MIC)
Description: as §1, §2, §3, §4

[8] = tested on: Candids albicans (MY 1028); assay: broth microdilution MIC/MFC assay; conditions: Candida albicans; for MFC: read-out: Minimum Fungicidal Concentration (MFC)
Description: as §1, §2, §3, §4

[9] = tested on: A. fumigatus (5669); assay: broth microdilution MIC assay; conditions: Aspergillus fumigatus, read-out: Minimum Inhibitory Concentration (MIC)
Description: as §1, §2, §3

[10] = tested on: C. neoformans (MY 1146); assay: broth microdilution MIC/MFC assay; conditions: Cryptococcus neoformans; for MFC: 48 h, read-out: Minimum Fungicidal Concentration (MFC); for MIC: read-out: Minimum Inhibitory Concentration (MIC)
Description: as §1, §2, §3, §4

[11] = tested on: Saccharomyces cerevisiae (MY 1976); assay: broth microdilution MIC/MFC assay; conditions: for MIC: 24 h, read-out: Minimum Inhibitory Concentration (MIC)
Description: as §1, §2, §3, §4

[12] = tested on: C. guillermondii (MY 1019); assay: broth microdilution MIC/MFC assay; conditions: Meyerozyma guilliermondii; for MIC: 24 h, read-out: Minimum Inhibitory Concentration (MIC); for MFC: read-out: Minimum Fungicidal Concentration (MFC)
Description: as §1, §2, §3, §4

[13] = tested on: C. albicans (MY 1750); assay: broth microdilution MIC/MFC assay; conditions: Candida albicans; for MFC: read-out: Minimum Fungicidal Concentration (MFC)
Description: as §1, §2, §3, §4

[14] = tested on: Cryptococcus neoformans (MY 1051); assay: broth microdilution MIC/MFC assay; conditions: for MFC: 48 h, read-out: Minimum Fungicidal Concentration (MFC); for MIC: read-out: Minimum Inhibitory Concentration (MIC)
Description: as §1, §2, §3, §4

[15] = tested on: Botrytis cinerea; assay: in vivo protectant assay, grey mold on pepper; conditions: 50 ppm, evaluated after four days
[16] = tested on: Alternaria solani; assay: in vivo protectant assay, early blight on tomato; conditions: 50 ppm, evaluated after four days
[17] = tested on: Puccinia recondita; assay: in vivo protectant assay, wheat leaf rust on wheat; conditions: 50 ppm, evaluated after 10-14 days
[18] = tested on: Phytophthora infestans; type: in vivo; conditions: 50 ppm, tomato, evaluated after four days
[19] = tested on: Plasmopara viticola; assay: in vivo protectant assay, downy mildew on grape; conditions: 50 ppm, evaluated after 12 days
[20] = tested on: filamentous fungi; assay: filter paper disc inhibition zone assay, filamentous fungi; type: cell-based; conditions: 25 μl/disc, 28° C. or 37° C., 24 hours
Description: Compound I is also useful for inhibiting the growth of filamentous fungi. Such use may be illustrated in the following tests with Aspergillus fumigatus, Aspergillus niger, Aspergillus flavus, Fusarium oxysporum, Rhizomicor miehei, Ustilago zeae and the like. Inocula for filamentous fungi are prepared by scraping the surface of stock plates maintained on potato dextrose agar with a moistened sterile dacron swab. The spores and mycelia are then suspended in 10 milliliters of sterile potato dextrose broth and adjusted to 70 percent transmission at 660 nm. The samples to be tested for production of antifungal agent are applied to 6.2 mm. filter paper discs (25 microliter/disc) and air dried at 24° C. When the sample to be tested is crude broth, it may be centrifuged prior to application. The discs bearing the material to be tested are then applied employing sterile conditions to the seeded assay plates and the samples […] 25 percent sterile aqueous dimethylsulfoxide (25 μl/disc). The assay plates are then incubated at either 28° C. or 37° C. for 24 hours. Following incubation, the inhibition zones are measured. Growths are also noted as to appearance.

[21] = 24 h, read-out: Minimum Inhibitory Concentration (MIC)

SMILES | MIC [1] | MIC [2] | MFC [2] | MFC [3] | MIC [3] | MIC [4] | MFC [4] | MIC [5] | MFC [5] | MIC [6] | MFC [7] | MIC [7] | MFC [8] | MIC [9] | MFC [10] | MIC [10] | MIC [11] | MIC [12] | MFC [12] | MFC [13] | further results
C[C@@H]1[C@H](O)[C@@H](C)/C=C/C=C/C=C/C=C/C=C/C=C/C=C/[C@H](O[C@@H]2O[C@H](C)[C@@H](O)[C@H](N)[C@@H]2O)C[C@@H]2O[C@](O)(C[C@@H](O)C[C@@H](O)[C@H](O)CC[C@@H](O)C[C@@H](O)CC(=O)O[C@H]1C)C[C@H](O)[C@H]2C(=O)O [Amphotericin B, reference compound] | 4 µg/mL (≈ 4.33 µM) | 64 µg/mL (≈ 69.3 µM) | 32 µg/mL (≈ 34.6 µM) | 2 µg/mL (≈ 2.16 µM) | 2 µg/mL (≈ 2.16 µM) | 2 µg/mL (≈ 2.16 µM) | 2 µg/mL (≈ 2.16 µM) | 4 µg/mL (≈ 4.33 µM) | 4 µg/mL (≈ 4.33 µM) | 4 µg/mL (≈ 4.33 µM) | 2 µg/mL (≈ 2.16 µM) | 2 µg/mL (≈ 2.16 µM) | 2 µg/mL (≈ 2.16 µM) | 4 µg/mL (≈ 4.33 µM) | 2 µg/mL (≈ 2.16 µM) | 2 µg/mL (≈ 2.16 µM) | 1 µg/mL (≈ 1.08 µM) | 2 µg/mL (≈ 2.16 µM) | 4 µg/mL (≈ 4.33 µM) | 2 µg/mL (≈ 2.16 µM) | MFC [14]: 4 µg/mL (≈ 4.33 µM); MIC [14]: 2 µg/mL (≈ 2.16 µM)
CCCCCCC(C)C1=C(O)C(=O)C2C(O)C(C)CC(O)C2C1(C)C(=O)CCO (centres unmarked) [Compound I] | 32 µg/mL (≈ 77.9 µM) | 32 µg/mL (≈ 77.9 µM) | 32 µg/mL (≈ 77.9 µM) | 32 µg/mL (≈ 77.9 µM) | 16 µg/mL (≈ 39 µM) | 64 µg/mL (≈ 156 µM) | 64 µg/mL (≈ 156 µM) | 16 µg/mL (≈ 39 µM) | 32 µg/mL (≈ 77.9 µM) | 32 µg/mL (≈ 77.9 µM) | 16 µg/mL (≈ 39 µM) | 16 µg/mL (≈ 39 µM) | 32 µg/mL (≈ 77.9 µM) | 32 µg/mL (≈ 77.9 µM) | 32 µg/mL (≈ 77.9 µM) | 32 µg/mL (≈ 77.9 µM) | 16 µg/mL (≈ 39 µM) | 16 µg/mL (≈ 39 µM) | 16 µg/mL (≈ 39 µM) | 32 µg/mL (≈ 77.9 µM) | control of Botrytis cinerea [15]: Moderate control; control of Alternaria solania [16]: Moderate control; control of Puccinia recondita [17]: Moderate control; control of Phytophthora infestans [18]: up to 90%; MIC [8, 21]: 32 µg/mL (≈ 77.9 µM); control of Plasmopara viticola [19]: ≤ 85%; MFC ([11]; read-out: Minimum Fungicidal Concentration (MFC)): 16 µg/mL (≈ 39 µM); MIC [13, 21]: 64 µg/mL (≈ 156 µM); growth inhibition of fungal organisms (inhibition zones) [20]: effectively inhibit growth; MFC [14]: 16 µg/mL (≈ 39 µM); MIC [14]: 8 µg/mL (≈ 19.5 µM)

From patent publication US5441987A, “Antifungal agent” (Merck & Co., Inc., priority 1994, dated 1995)
